Experimental data reported in PubChem BioAssay (NCI).
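48-hour exposure; five concentrations; linearly interpolated endpoints. Here, GI50 denotes the concentration required for 50% inhibition of growth. TGI: total growth inhibition.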

What was measured:
Assay in all cases: NCI tumour cell line growth inhibition, 48 h
U251 CNS = system: U251 CNS
SK-OV-3 ovarian = system: SK-OV-3 ovarian
SF-539 CNS = system: SF-539 CNS
OVCAR-8 ovarian = system: OVCAR-8 ovarian
KM12 colon = system: KM12 colon
K-562 leukemia = system: K-562 leukemia
SNB-19 CNS = system: SNB-19 CNS
NCI/ADR-RES ovarian = system: NCI/ADR-RES ovarian
HL-60(TB) leukemia = system: HL-60(TB) leukemia
UACC-257 melanoma = system: UACC-257 melanoma
SN12C renal = system: SN12C renal
UO-31 renal = system: UO-31 renal
NCI-H226 lung = system: NCI-H226 lung
CCRF-CEM leukemia = system: CCRF-CEM leukemia
UACC-62 melanoma = system: UACC-62 melanoma
HCT-116 colon = system: HCT-116 colon
A549 NSCLC = system: A549 NSCLC
OVCAR-4 ovarian = system: OVCAR-4 ovarian
MCF7 breast = system: MCF7 breast
SNB-75 CNS = system: SNB-75 CNS
SK-MEL-5 melanoma = system: SK-MEL-5 melanoma
RXF 393 renal = system: RXF 393 renal
MOLT-4 leukemia = system: MOLT-4 leukemia
OVCAR-3 ovarian = system: OVCAR-3 ovarian
HOP-62 NSCLC = system: HOP-62 NSCLC
PC-3 prostate = system: PC-3 prostate
T-47D breast = system: T-47D breast
HOP-92 NSCLC = system: HOP-92 NSCLC
SK-MEL-28 melanoma = system: SK-MEL-28 melanoma
MDA-MB-231 breast = system: MDA-MB-231 breast
OVCAR-5 ovarian = system: OVCAR-5 ovarian
NCI-H23 lung = system: NCI-H23 lung
DU-145 prostate = system: DU-145 prostate
SK-MEL-2 melanoma = system: SK-MEL-2 melanoma
CAKI-1 renal = system: CAKI-1 renal
EKVX NSCLC = system: EKVX NSCLC
LOX IMVI melanoma = system: LOX IMVI melanoma
A498 renal = system: A498 renal
MDA-MB-435 = system: MDA-MB-435
TK-10 renal = system: TK-10 renal
HS 578T breast = system: HS 578T breast
BT-549 breast = system: BT-549 breast
NCI-H522 lung = system: NCI-H522 lung
786-0 renal = system: 786-0 renal
COLO 205 colon = system: COLO 205 colon
HCC-2998 colon = system: HCC-2998 colon
SF-268 CNS = system: SF-268 CNS
MALME-3M melanoma = system: MALME-3M melanoma
IGROV1 ovarian = system: IGROV1 ovarian
HCT-15 colon = system: HCT-15 colon
M14 melanoma = system: M14 melanoma
RPMI-8226 leukemia = system: RPMI-8226 leukemia
SF-295 CNS = system: SF-295 CNS
ACHN renal = system: ACHN renal
SW-620 colon = system: SW-620 colon
NCI-H460 lung = system: NCI-H460 lung

Clc1ccc2[nH]cc(-c3nc(-c4c[nH]c5ncccc45)cs3)c2c1
GI50 (U251 CNS): 3.17 µM
TGI (U251 CNS): 13.2 µM
GI50 (SK-OV-3 ovarian): 6.16 µM
TGI (SK-OV-3 ovarian): 39 µM
GI50 (SF-539 CNS): 4.97 µM
TGI (SF-539 CNS): 21.2 µM
GI50 (OVCAR-8 ovarian): 3.87 µM
TGI (OVCAR-8 ovarian): 20.8 µM
GI50 (KM12 colon): 3.17 µM
TGI (KM12 colon): 12.2 µM
GI50 (K-562 leukemia): 2.42 µM
TGI (K-562 leukemia): > 100 µM
GI50 (SNB-19 CNS): 5.97 µM
TGI (SNB-19 CNS): 43.9 µM
GI50 (NCI/ADR-RES ovarian): 3.09 µM
TGI (NCI/ADR-RES ovarian): 16.9 µM
GI50 (HL-60(TB) leukemia): 2.89 µM
TGI (HL-60(TB) leukemia): 45.6 µM
GI50 (UACC-257 melanoma): 2.56 µM
TGI (UACC-257 melanoma): 6.78 µM
GI50 (SN12C renal): 4.78 µM
TGI (SN12C renal): 20.9 µM
GI50 (UO-31 renal): 1.36 µM
TGI (UO-31 renal): 28.2 µM
GI50 (NCI-H226 lung): 3.69 µM
TGI (NCI-H226 lung): 22.2 µM
GI50 (CCRF-CEM leukemia): 4.14 µM
TGI (CCRF-CEM leukemia): > 100 µM
GI50 (UACC-62 melanoma): 4 µM
TGI (UACC-62 melanoma): 16.5 µM
GI50 (HCT-116 colon): 3.23 µM
TGI (HCT-116 colon): 13.7 µM
GI50 (A549 NSCLC): 2.94 µM
TGI (A549 NSCLC): 62.4 µM
GI50 (OVCAR-4 ovarian): 2.85 µM
TGI (OVCAR-4 ovarian): 36.5 µM
GI50 (MCF7 breast): 2.46 µM
TGI (MCF7 breast): 16.5 µM
GI50 (SNB-75 CNS): 3.25 µM
TGI (SNB-75 CNS): 35.3 µM
GI50 (SK-MEL-5 melanoma): 2.98 µM
TGI (SK-MEL-5 melanoma): 12.5 µM
GI50 (RXF 393 renal): 2.69 µM
TGI (RXF 393 renal): 11.4 µM
GI50 (MOLT-4 leukemia): 2.73 µM
TGI (MOLT-4 leukemia): 25.6 µM
GI50 (OVCAR-3 ovarian): 6.69 µM
TGI (OVCAR-3 ovarian): 34.1 µM
GI50 (HOP-62 NSCLC): 5.2 µM
TGI (HOP-62 NSCLC): 27.3 µM
GI50 (PC-3 prostate): 3.5 µM
TGI (PC-3 prostate): 28 µM
GI50 (T-47D breast): 4.88 µM
TGI (T-47D breast): 33.7 µM
GI50 (HOP-92 NSCLC): 2.24 µM
TGI (HOP-92 NSCLC): 8.6 µM
GI50 (SK-MEL-28 melanoma): 6.43 µM
TGI (SK-MEL-28 melanoma): 20.1 µM
GI50 (MDA-MB-231 breast): 2.2 µM
TGI (MDA-MB-231 breast): 17.1 µM
GI50 (OVCAR-5 ovarian): 5.63 µM
TGI (OVCAR-5 ovarian): 59.5 µM
GI50 (NCI-H23 lung): 3.34 µM
TGI (NCI-H23 lung): 20.5 µM
GI50 (DU-145 prostate): 4.23 µM
TGI (DU-145 prostate): 21.4 µM
GI50 (SK-MEL-2 melanoma): 6.51 µM
TGI (SK-MEL-2 melanoma): 23.7 µM
GI50 (CAKI-1 renal): 1.73 µM
TGI (CAKI-1 renal): 11.2 µM
GI50 (EKVX NSCLC): 2.16 µM
TGI (EKVX NSCLC): 22.3 µM
GI50 (LOX IMVI melanoma): 2.71 µM
TGI (LOX IMVI melanoma): 12.1 µM
GI50 (A498 renal): 2.08 µM
TGI (A498 renal): 10.4 µM
GI50 (MDA-MB-435): 3.44 µM
TGI (MDA-MB-435): 14.8 µM
GI50 (TK-10 renal): 4.71 µM
TGI (TK-10 renal): 38.1 µM
GI50 (HS 578T breast): 7.59 µM
TGI (HS 578T breast): > 100 µM
GI50 (BT-549 breast): 4.85 µM
TGI (BT-549 breast): 17.1 µM
GI50 (NCI-H522 lung): 2.73 µM
TGI (NCI-H522 lung): 13.7 µM
GI50 (786-0 renal): 2.34 µM
TGI (786-0 renal): 5.89 µM
GI50 (COLO 205 colon): 1.73 µM
TGI (COLO 205 colon): 13.3 µM
GI50 (HCC-2998 colon): 4.63 µM
TGI (HCC-2998 colon): 21.8 µM
GI50 (SF-268 CNS): 5.06 µM
TGI (SF-268 CNS): 32.4 µM
GI50 (MALME-3M melanoma): 5.17 µM
TGI (MALME-3M melanoma): 19 µM
GI50 (IGROV1 ovarian): 3.04 µM
TGI (IGROV1 ovarian): 28.6 µM
GI50 (HCT-15 colon): 2.6 µM
TGI (HCT-15 colon): 7.9 µM
GI50 (M14 melanoma): 3.2 µM
TGI (M14 melanoma): 11.1 µM
GI50 (RPMI-8226 leukemia): 3.34 µM
TGI (RPMI-8226 leukemia): 77.1 µM
GI50 (SF-295 CNS): 2.74 µM
TGI (SF-295 CNS): 7.66 µM
GI50 (ACHN renal): 2.82 µM
TGI (ACHN renal): > 100 µM
GI50 (SW-620 colon): 3.08 µM
TGI (SW-620 colon): 11.6 µM
GI50 (NCI-H460 lung): 2.56 µM
TGI (NCI-H460 lung): 9.15 µM
